According to patent US10660967B2, “Curcumin conjugates and methods of use thereof” (priority 2016, dated 2020):
Like-named read-outs stand apart in the source and are kept apart here.

Key:
[1] = system: PHA-stimulated splenocytes; test: Proliferative response of PHA-stimulated splenocytes (MTT assay); type: cell-based; settings: PHA 5 μg/ml, 72 hr; compounds at 5 μM (method says 10 μM); ratio of O.D. versus vehicle control
Procedure, shortened: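 Freshly prepared splenocytes (1×10^6 cells/well) were cultured for 72 h at 37° C with compound at 10 μM final, with or without PHA (5 μg/ml). Viability was read by MTT (4 h), with absorbance at 570 nm against 690 nm reference. Stimulation index is the OD ratio of treated versus vehicle cultures.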

[2] = system: Staphylococcus aureus ATCC25923; test: Antimicrobial MIC, agar dilution
[3] = system: PC3 (prostate) carcinoma cell line; test: Anti-tumor properties, MTT; type: cell-based; settings: Homo sapiens
[4] = system: A-549 (lung) carcinoma cell line; test: Anti-tumor properties, MTT; type: cell-based; settings: Homo sapiens, A549
[5] = system: lipopolysaccharide-stimulated peritoneal macrophages; test: Production of nitric oxide by lipopolysaccharide-stimulated peritoneal macrophages (Greiss reagent); type: cell-based; parameters: Potency (%): % inhibition of nitric oxide production relative to lipopolysaccharide-stimulated macrophages: concentration or dose not given beside the values; settings: LPS-stimulated peritoneal macrophages; for Nitric oxide (nitrite) concentration, μM (average ± SD): 24 h, nitrite by Greiss reagent
Procedure, shortened: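 Macrophages in nitrite-free medium with 0.1% BSA were stimulated with LPS at 0.5–10 ng/ml, some wells also receiving epinephrine, norepinephrine or dopamine at […], for 24 h at 37° C. Nitrite in supernatants was measured with Greiss reagent, 15 min at room temperature, absorbance 532 nm.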

[6] = system: Streptococcus pyogenes ATCC19615; test: Antimicrobial MIC, agar dilution
[7] = system: Candida albicans (local isolate); test: Antimicrobial MIC, agar dilution; settings: Candida albicans, read-out: Minimum inhibitory concentration (MIC)
[8] = system: MCF7 (breast) carcinoma cell line; test: Anti-tumor properties, MTT; type: cell-based; settings: Homo sapiens, MCF7; read-out: IC50 (μM) MCF7 (breast)
Procedure, shortened: (§1)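 Cells seeded at 10×10^3 per well for 24 h, then exposed to compound in serum-free medium (final up to 100 μM, 0.5% DMSO vehicle) for 72 h in triplicate. Viability by MTT reduction (4 h, SDS solubilised), absorbance 595 nm/ref 620 nm; IC50 from survival curves.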

[9] = system: HepG2 (hepatocellular) carcinoma cell line; test: Anti-tumor properties, MTT; type: cell-based; settings: Homo sapiens, HepG2; read-out: IC50 (μM) HepG2 (liver)
Procedure, shortened: as §1

[10] = system: HCT116 (colon) carcinoma cell line; test: Anti-tumor properties, MTT; type: cell-based; settings: Homo sapiens, HCT-116; read-out: IC50 (μM) HCT116 (colon)
Procedure, shortened: as §1

[11] = system: Pseudomonas aeruginosa ATCC27853; test: Antimicrobial MIC, agar dilution
[12] = system: Salmonella typhi ATCC19430; test: Antimicrobial MIC, agar dilution; type: cell-based; settings: Salmonella enterica, read-out: Minimum inhibitory concentration (MIC)
[13] = ATCC25923, 18 h, read-out: Minimum inhibitory concentration (MIC)
[14] = ATCC25923, read-out: Minimum inhibitory concentration (MIC)
[15] = ATCC19615, 18 h, read-out: Minimum inhibitory concentration (MIC)
[16] = ATCC19615, read-out: Minimum inhibitory concentration (MIC)
[17] = ATCC27853, 18 h, read-out: Minimum inhibitory concentration (MIC)
[18] = ATCC27853, read-out: Minimum inhibitory concentration (MIC)

COc1cc(/C=C/C(=O)CC(=O)/C=C/c2ccc(OC(=O)C(C)NC(=O)OC(C)(C)C)c(OC)c2)ccc1OC(=O)C(C)NC(=O)OC(C)(C)C (racemic) [Boc-DL-Ala-Cur, ((1E,6E)-3,5-dioxohepta-1,6-diene-1,7-diyl)bis(2-methoxy-4,1-phenylene) bis(2-((tert-butoxycarbonyl)amino)propanoate)]
Stimulation Index (average ± SD) [1]: 1.78 ± 0.07
MIC [2, 13]: 0.25 µg/mL
MIC [2, 14]: 0.352 µM
IC50 [3]: > 100 µM
IC50 [4]: 73.9 µM
Potency (%): % inhibition of nitric oxide production relative to lipopolysaccharide-stimulated macrophages [5]: 30.88%
Nitric oxide (nitrite) concentration, μM (average ± SD) [5]: 18.88 ± 0.46 µM
MIC [6, 15]: 0.125 µg/mL
MIC [6, 16]: 0.176 µM
MIC ([7]; 18 h): 0.5 µg/mL
MIC [7]: 0.703 µM
IC50 [8]: 34.8 µM
IC50 [9]: > 100 µM
IC50 [10]: > 100 µM
MIC [11, 17]: 0.25 µg/mL
MIC [11, 18]: 0.352 µM
MIC ([12]; 18 h): 0.25 µg/mL
MIC [12]: 0.352 µM

COc1cc(/C=C/C(=O)CC(=O)/C=C/c2ccc(OC(=O)C(C)N)c(OC)c2)ccc1OC(=O)C(C)N.Cl.Cl (racemic) [HCl-DL-Ala-Cur, 1,1′-((((1E,6E)-3,5-dioxohepta-1,6-diene-1,7-diyl)bis(2-methoxy-4,1-phenylene))bis(oxy))bis(1-oxopropan-2-aminium) chloride]
Stimulation Index (average ± SD) [1]: 1.91 ± 0.15
MIC [2, 13]: 0.125 µg/mL
MIC [2, 14]: 0.214 µM
IC50 [3]: 21.7 µM
IC50 [4]: 22.2 µM
Potency (%): % inhibition of nitric oxide production relative to lipopolysaccharide-stimulated macrophages [5]: 27.69%
Nitric oxide (nitrite) concentration, μM (average ± SD) [5]: 19.75 ± 0.97 µM
MIC [6, 15]: 0.25 µg/mL
MIC [6, 16]: 0.428 µM
MIC ([7]; 18 h): 1 µg/mL
MIC [7]: 1.71 µM
IC50 [8]: 9.79 µM
IC50 [9]: 36.8 µM
IC50 [10]: 66.9 µM
MIC [11, 17]: 0.5 µg/mL
MIC [11, 18]: 0.857 µM
MIC ([12]; 18 h): 0.25 µg/mL
MIC [12]: 0.428 µM

COc1cc(/C=C/C(=O)CC(=O)/C=C/c2ccc(OC(=O)[C@@H](C)NC(=O)OC(C)(C)C)c(OC)c2)ccc1OC(=O)[C@@H](C)NC(=O)OC(C)(C)C [Boc-D-Ala-Cur, ((1E,6E)-3,5-dioxohepta-1,6-diene-1,7-diyl)bis(2-methoxy-4,1-phenylene) (2R,2′R)-bis(2-((tert-butoxycarbonyl)amino)propanoate)]
Stimulation Index (average ± SD) [1]: 2.07 ± 0.12
MIC [2, 13]: 0.125 µg/mL
MIC [2, 14]: 0.176 µM
IC50 [3]: > 100 µM
IC50 [4]: 85.4 µM
Potency (%): % inhibition of nitric oxide production relative to lipopolysaccharide-stimulated macrophages [5]: 23.82%
Nitric oxide (nitrite) concentration, μM (average ± SD) [5]: 20.81 ± 0.82 µM
MIC [6, 15]: 1 µg/mL
MIC [6, 16]: 1.41 µM
MIC ([7]; 18 h): 0.5 µg/mL
MIC [7]: 0.703 µM
IC50 [8]: 29.2 µM
IC50 [9]: > 100 µM
IC50 [10]: > 100 µM
MIC [11, 17]: 0.25 µg/mL
MIC [11, 18]: 0.352 µM
MIC ([12]; 18 h): 0.25 µg/mL
MIC [12]: 0.352 µM

COc1cc(/C=C/C(=O)CC(=O)/C=C/c2ccc(OC(=O)CNC(=O)OC(C)(C)C)c(OC)c2)ccc1OC(=O)CNC(=O)OC(C)(C)C [Boc-Gly-Cur, ((1E,6E)-3,5-dioxohepta-1,6-diene-1,7-diyl)bis(2-methoxy-4,1-phenylene) bis(2-((tert-butoxycarbonyl)amino)acetate)]
Stimulation Index (average ± SD) [1]: 2.11 ± 0.16
MIC [2, 13]: 0.25 µg/mL
MIC [2, 14]: 0.366 µM
IC50 [3]: > 100 µM
IC50 [4]: 80.9 µM
Potency (%): % inhibition of nitric oxide production relative to lipopolysaccharide-stimulated macrophages [5]: 33.65%
Nitric oxide (nitrite) concentration, μM (average ± SD) [5]: 18.12 ± 1.41 µM
MIC [6, 15]: 1 µg/mL
MIC [6, 16]: 1.47 µM
MIC ([7]; 18 h): 0.5 µg/mL
MIC [7]: 0.732 µM
IC50 [8]: 17.2 µM
IC50 [9]: > 100 µM
IC50 [10]: > 100 µM
MIC [11, 17]: 0.25 µg/mL
MIC [11, 18]: 0.366 µM
MIC ([12]; 18 h): 0.125 µg/mL
MIC [12]: 0.183 µM

COc1cc(/C=C/C(=O)CC(=O)/C=C/c2ccc(OC(=O)[C@H](C)NC(=O)OC(C)(C)C)c(OC)c2)ccc1OC(=O)[C@H](C)NC(=O)OC(C)(C)C [Boc-L-Ala-Cur, ((1E,6E)-3,5-dioxohepta-1,6-diene-1,7-diyl)bis(2-methoxy-4,1-phenylene) (2S,2′S)-bis(2-((tert-butoxycarbonyl)amino)propanoate)]
Stimulation Index (average ± SD) [1]: 2.71 ± 0.28
MIC [2, 13]: 0.125 µg/mL
MIC [2, 14]: 0.176 µM
IC50 [3]: > 100 µM
IC50 [4]: > 100 µM
Potency (%): % inhibition of nitric oxide production relative to lipopolysaccharide-stimulated macrophages [5]: 22.02%
Nitric oxide (nitrite) concentration, μM (average ± SD) [5]: 21.30 ± 1.72 µM
MIC [6, 15]: 0.25 µg/mL
MIC [6, 16]: 0.352 µM
MIC ([7]; 18 h): 1 µg/mL
MIC [7]: 1.41 µM
IC50 [8]: 25.1 µM
IC50 [9]: > 100 µM
IC50 [10]: > 100 µM
MIC [11, 17]: 1 µg/mL
MIC [11, 18]: 1.41 µM
MIC ([12]; 18 h): 0.125 µg/mL
MIC [12]: 0.176 µM

COc1cc(/C=C/C(=O)CC(=O)/C=C/c2ccc(OC(=O)[C@H](CCC(N)=O)NC(=O)OC(C)(C)C)c(OC)c2)ccc1OC(=O)[C@H](CCC(N)=O)NC(=O)OC(C)(C)C [Boc-L-Gln-Cur, ((1E,6E)-3,5-dioxohepta-1,6-diene-1,7-diyl)bis(2-methoxy-4,1-phenylene) (2S,2′S)-bis(5-amino-2-((tert-butoxycarbonyl)amino)-5-oxopentanoate)]
Stimulation Index (average ± SD) [1]: 2.14 ± 0.23
MIC [2, 13]: 0.125 µg/mL
MIC [2, 14]: 0.152 µM
IC50 [3]: 39.1 µM
IC50 [4]: 30.9 µM
Potency (%): % inhibition of nitric oxide production relative to lipopolysaccharide-stimulated macrophages [5]: 22.29%
Nitric oxide (nitrite) concentration, μM (average ± SD) [5]: 21.22 ± 1.50 µM
MIC [6, 15]: 0.25 µg/mL
MIC [6, 16]: 0.303 µM
MIC ([7]; 18 h): 2 µg/mL
MIC [7]: 2.42 µM
IC50 [8]: 8.48 µM
IC50 [9]: 70.6 µM
IC50 [10]: > 100 µM
MIC [11, 17]: 1 µg/mL
MIC [11, 18]: 1.21 µM
MIC ([12]; 18 h): 0.125 µg/mL
MIC [12]: 0.152 µM

CC[C@H](C)[C@H](NC(=O)OC(C)(C)C)C(=O)Oc1ccc(/C=C/C(=O)CC(=O)/C=C/c2ccc(OC(=O)[C@@H](NC(=O)OC(C)(C)C)[C@@H](C)CC)c(OC)c2)cc1OC [Boc-L-Ile-Cur, ((1E,6E)-3,5-dioxohepta-1,6-diene-1,7-diyl)bis(2-methoxy-4,1-phenylene) (2S,2′S,3S,3′S)-bis(2-((tert-butoxycarbonyl)amino)-3-methylpentanoate)]
Stimulation Index (average ± SD) [1]: 2.07 ± 0.10
MIC [2, 13]: 0.125 µg/mL
MIC [2, 14]: 0.157 µM
IC50 [3]: > 100 µM
IC50 [4]: > 100 µM
Potency (%): % inhibition of nitric oxide production relative to lipopolysaccharide-stimulated macrophages [5]: 23.82%
Nitric oxide (nitrite) concentration, μM (average ± SD) [5]: 20.81 ± 0.68 µM
MIC [6, 15]: 0.25 µg/mL
MIC [6, 16]: 0.314 µM
MIC ([7]; 18 h): 2 µg/mL
MIC [7]: 2.52 µM
IC50 [8]: 49.6 µM
IC50 [9]: > 100 µM
IC50 [10]: > 100 µM
MIC [11, 17]: 1 µg/mL
MIC [11, 18]: 1.26 µM
MIC ([12]; 18 h): 0.125 µg/mL
MIC [12]: 0.157 µM

COc1cc(/C=C/C(=O)CC(=O)/C=C/c2ccc(OC(=O)[C@@H](NC(=O)OC(C)(C)C)C(C)C)c(OC)c2)ccc1OC(=O)[C@@H](NC(=O)OC(C)(C)C)C(C)C [Boc-L-Val-Cur, ((1E,6E)-3,5-dioxohepta-1,6-diene-1,7-diyl)bis(2-methoxy-4,1-phenylene) (2S,2′S)-bis(2-((tert-butoxycarbonyl)amino)-3-methylbutanoate)]
Stimulation Index (average ± SD) [1]: 1.84 ± 0.06
MIC [2, 13]: 0.25 µg/mL
MIC [2, 14]: 0.326 µM
IC50 [3]: > 100 µM
IC50 [4]: > 100 µM
Potency (%): % inhibition of nitric oxide production relative to lipopolysaccharide-stimulated macrophages [5]: 29.35%
Nitric oxide (nitrite) concentration, μM (average ± SD) [5]: 19.29 ± 0.39 µM
MIC [6, 15]: 2 µg/mL
MIC [6, 16]: 2.61 µM
MIC ([7]; 18 h): 1 µg/mL
MIC [7]: 1.3 µM
IC50 [8]: ≥ 100 µM
IC50 [9]: > 100 µM
IC50 [10]: > 100 µM
MIC [11, 17]: 2 µg/mL
MIC [11, 18]: 2.61 µM
MIC ([12]; 18 h): 0.25 µg/mL
MIC [12]: 0.326 µM
